Experimental data: ChEMBL document CHEMBL1641389, “Penasins A-E, long-chain cytotoxic sphingoid bases, from a marine sponge Penares sp” (J Nat Prod, 2010)
In brackets after ≈: the same amount, converted by molar mass.

Assays:
P388 = assay: Cytotoxicity against mouse P388 cells after 96 hrs by MTT assay; assay type: functional, cell-based; conditions: P388, 96 h
HeLa = assay: Cytotoxicity against human HeLa cells after 96 hrs by MTT assay; assay type: functional, cell-based

| SMILES | IC50 (P388) [µg/mL] | IC50 (HeLa) [µg/mL] |
| --- | --- | --- |
| CCCCCCCCCCCCCCCC/C=C(\Cl)CC/C=C\CCCC[C@@H]1OC[C@H](N)[C@@H]1O [PENASIN B] | 50 (≈ 100 µM) | 10 (≈ 20.1 µM) |
| CCCCCCCCCCCCCCCC/C=C\CC/C=C\CCCC[C@@H]1OC[C@H](N)[C@@H]1O [PENASIN] | 50 (≈ 108 µM) | 10 (≈ 21.6 µM) |
